Source: patent US4476114A, “Iron-selenium preparation” (Orion-yhtyma Oy, priority 1982, dated 1984)
“And” between values parts separate entries of the source, which are not always exact repeats. Equal entries are not always repeated.

Key:
[1] = Serum selenium content in selenium-deficient pigs (Table 1); format: in vivo; settings: 0.06 mg Se/kg i.m.
Procedure: (§1) The new type of preparation containing sodium selenite and ferric dextran was administered intramuscularly to three pigs, weight 15 . . . 25 kg, suffering from selenium deficiency. Another three pigs suffering from selenium deficiency were given the same dose of sodium selenite. Serum selenium content and glutathione peroxidase enzyme activity were determined as a measure of the bioactivity of selenium in the organism. […] All the pigs were on the same diet throughout the test period.
(§2) Animals 1, 2 and 3 received 0.06 mg Se per kg body weight intramuscularly
(§3) Animals 4, 5 and 6 received 0.06 mg Se per kg body weight intramuscularly
(§4) as sodium selenite combined with ferric dextran, 200 mg Fe per dose.

[2] = in words; background statement; cited from earlier work
[3] = system: glutathione peroxidase; experiment: Serum glutathione peroxidase (gSH-Px) activity in selenium-deficient pigs (Table 1); format: in vivo
Procedure: as §1, §2, §3, §4

[4] = Serum selenium level in newborn piglets (Table 2); format: in vivo
Procedure: (§5) Six newborn piglets weighing about 1 kg were given an intramuscular dose of 2 ml of the new iron-selenium preparation, each ml containing 100 mg Fe^+3 as ferric dextran and 0.15 mg Se^+4 as sodium selenite. […] This was in spite of the fact that the animals were fed on milk from a sow kept on a low-selenium diet during this period. Five similar piglets, given the same diet, formed the control group. The control animals were given 200 mg Fe^+3 ferric dextran intramuscularly at the same time as injection of the test group. Four weeks later, mean selenium levels of 55.4 ng/ml and a mean glutathione perioxidase activity of 710.8 IU/l were found in their serum. The differences between the mean values of the test group and the control group were statistically significant, the glutathione peroxidase difference at the 99% confidence interval and the Se difference at the 95% interval (Wilcoxson-Mann-Whitney rank sum test).
(§6) 0.3 mg/Se/kg together with 200 mg Fe^+3

[5] = Serum selenium maintenance / selenium sufficiency in piglets injected at three days; format: in vivo; settings: in words; 200 mg Fe^+3 per animal; 3 weeks
Procedure: (§7) In another study, two sows were kept on a low-selenium diet during the last four weeks of pregnancy and during lactation. The 25 piglets born alive were divided at the age of three days into two groups (12+13), both groups containing piglets from both sows. Blood samples were taken from all piglets for determination of selenium and glutathione peroxidase values and for blood cell counts. The test group (13 piglets) were given a subcutaneous injection of 200 mg (2 ml) Fe^+3 as ferric dextran, to which sodium selenite had been added to give a Se^+4 content of 0.15 mg/ml. The control group (12) received 200 mg Fe^+3 as ferric dextran without Se^+4. One piglet in the control group later died. After eight days, blood samples were taken from all piglets. […] The difference was statistically significant at the 95% confidence interval using the non-parametric Wilcoxson-Mann-Whitney rank sum test. […] This is an important finding that will play a major role in both human and veterinary medicine. The use of selenium in combination with iron is likely to increase considerably. […] Selenium is probably stored as an iron-selenium complex, which explains the unexpected sufficiency of a single dose given at an early stage up to a weight of about 8 . . . 10 kg.

[6] = system: erythrocyte count; experiment: Increase in erythrocyte count in piglets, electronic counter; format: in vivo; settings: eight days after injection of 200 mg Fe^+3 as ferric dextran, with or without Se^+4 0.15 mg/ml (2 ml, s.c. in test group); difference significant at 95% confidence interval
Procedure: as §7

[7] = Growth (weight increase) of piglets injected at three days; format: in vivo; settings: in words; 200 mg Fe^+3 per animal; 3 weeks
Procedure: as §7

[8] = system: glutathione peroxidase; experiment: Serum glutathione peroxidase activity in newborn piglets (Table 2); format: in vivo
Procedure: as §5, §6

[9] = in words, four weeks after treatment
[10] = mean of five control piglets, serum, four weeks later, 200 mg Fe^+3 ferric dextran i.m.

Row | Compound | serum selenium level over 15 days ([1]; in words) | Mean Se, 0-sample ([1]; mean of 3 pigs, serum, 0-sample (before dosing)) | Mean Se at day 8 ([1]; mean of 3 pigs, serum, day 8, 11520 min) | Mean Se at day 15 ([1]; mean of 3 pigs, serum, day 15, 21600 min) | elimination of selenium from the organism [2] | half-life of selenium in the organism [2] | gSH-Px, 0-sample ([3]; individual pigs, 0-sample (before dosing), 0.06 mg Se/kg i.m., with ferric dextran 200 mg Fe per dose for animals 4-6) | gSH-Px at day 8 ([3]; individual pigs, day 8, 0.06 mg Se/kg i.m., with ferric dextran 200 mg Fe per dose for animals 4-6) | gSH-Px at day 15 ([3]; individual pigs, day 15, 0.06 mg Se/kg i.m., with ferric dextran 200 mg Fe per dose for animals 4-6) | Mean gSH-Px, 0-sample ([3]; mean of 3 pigs, 0-sample (before dosing), 0.06 mg Se/kg i.m.) | Mean gSH-Px at day 8 ([3]; mean of 3 pigs, day 8, 0.06 mg Se/kg i.m.) | Mean gSH-Px at day 15 ([3]; mean of 3 pigs, day 15, 0.06 mg Se/kg i.m.) | serum level of selenium four weeks later [4, 9] | mean selenium level, control group [4, 10] | selenium status of control animals [5] | mean increase in the erythrocyte count [6] | weight increase of control animals [7] | serum level of glutathione peroxidase four weeks later [8, 9] | mean glutathione peroxidase activity, control group [8, 10]
1 | O=[Se]([O-])[O-].[Na+].[Na+] [sodium selenite] | remained elevated for only 8 days | 23 ng/mL | 49 ng/mL | 35 ng/mL | rapidly eliminated | short | 373 IU/l and 298 IU/l and 325 IU/l | 1065 IU/l and 796 IU/l and 926 IU/l | 632 IU/l and 437 IU/l and 484 IU/l | 332 IU/l | 926 IU/l | 518 IU/l | – | – | – | – | – | – | –
2 | ferric dextran | – | – | – | – | – | – | – | – | – | – | – | – | indicate a deficiency state | 55.4 ng/mL | severe selenium deficiency | 1.41±0.30 10^12 /l | retardation in weight increase | indicate a deficiency state | 710.8 IU/l
